Laboratory results: the supplement of paper PMC13380429

What was measured:
Settings in all cases: 72 h
HepG2 [1] = assay: drug sensitivity score (DSS) for viability; higher = more toxic; extreme values may be limits of the assay
Vero E6 [2] = assay: as above
Calu-3 [3] = assay: as above
Caco-2 [4] = assay: as above
HepG2 [5] = assay: relative viability EC50 (midpoint between 100% and the lowest measured viability); higher = less toxic
Vero E6 [6] = assay: as above
Calu-3 [7] = assay: as above
Caco-2 [8] = assay: as above
HepG2 [9] = assay: cell viability relative to DMSO; higher = less toxic
Vero E6 [10] = assay: as above
Calu-3 [11] = assay: as above
Caco-2 [12] = assay: as above
U2OS [13] = assay: drug sensitivity score (DSS) for viability; higher = more toxic; extreme values may be limits of the assay
U2OS [14] = assay: relative viability EC50 (midpoint between 100% and the lowest measured viability); higher = less toxic
U2OS [15] = assay: cell viability relative to DMSO; higher = less toxic

| SMILES | drug sensitivity score (HepG2 [1]) | drug sensitivity score (Vero E6 [2]) | drug sensitivity score (Calu-3 [3]) | drug sensitivity score (Caco-2 [4]) | relative viability EC50 (HepG2 [5]) [µM] | relative viability EC50 (Vero E6 [6]) [µM] | relative viability EC50 (Calu-3 [7]) [µM] | relative viability EC50 (Caco-2 [8]) [µM] | cell viability (HepG2 [9]; 1 nM) [%] | cell viability (HepG2 [9]; 10 nM) [%] | cell viability (HepG2 [9]; 100 nM) [%] | cell viability (HepG2 [9]; 1000 nM) [%] | cell viability (HepG2 [9]; 10000 nM) [%] | cell viability (Vero E6 [10]; 1 nM) [%] | cell viability (Vero E6 [10]; 10 nM) [%] | cell viability (Vero E6 [10]; 100 nM) [%] | cell viability (Vero E6 [10]; 1000 nM) [%] | cell viability (Vero E6 [10]; 10000 nM) [%] | cell viability (Calu-3 [11]; 1 nM) [%] | cell viability (Calu-3 [11]; 10 nM) [%] | cell viability (Calu-3 [11]; 100 nM) [%] | cell viability (Calu-3 [11]; 1000 nM) [%] | cell viability (Calu-3 [11]; 10000 nM) [%] | cell viability (Caco-2 [12]; 1 nM) [%] | cell viability (Caco-2 [12]; 10 nM) [%] | cell viability (Caco-2 [12]; 100 nM) [%] | cell viability (Caco-2 [12]; 1000 nM) [%] | cell viability (Caco-2 [12]; 10000 nM) [%] | drug sensitivity score (U2OS [13]) | relative viability EC50 (U2OS [14]) [µM] | cell viability (U2OS [15]; 1 nM) [%] | cell viability (U2OS [15]; 10 nM) [%] | cell viability (U2OS [15]; 100 nM) [%] | cell viability (U2OS [15]; 1000 nM) [%] | cell viability (U2OS [15]; 10000 nM) [%] |
| --- | --- | --- | --- | --- | --- | --- | --- | --- | --- | --- | --- | --- | --- | --- | --- | --- | --- | --- | --- | --- | --- | --- | --- | --- | --- | --- | --- | --- | --- | --- | --- | --- | --- | --- | --- |
| O=C(Cc1ccc(-c2ccccc2)cc1)Nc1ccccn1 [difenpiramide] | 2.4 | 0 | 0 | 0.2 | 3.89 | > 10 | > 10 | > 10 | 117 | 118 | 109 | 110 | 43.6 | 106 | 111 | 104 | 103 | 98.5 | 107 | 99.3 | 96.9 | 96.4 | 102 | 98.4 | 107 | 100 | 107 | 82.9 |  |  |  |  |  |  |  |
| O=C(O[C@@H]1Cc2c(O)cc(O)cc2O[C@@H]1c1ccc(O)c(O)c1)c1cc(O)c(O)c(O)c1 [epicatechin-gallate-(-)] |  | 0 | 0 | 0 |  | > 10 | > 10 | > 10 |  |  |  |  |  | 105 | 102 | 99 | 96.1 | 99 | 107 | 102 | 93.2 | 91 | 104 | 99.7 | 93.6 | 87.7 | 92 | 100 | 0 | > 10 | 97.7 | 97.5 | 103 | 97.2 | 101 |
| COC(=O)Nc1nc2cc(Sc3ccccc3)ccc2[nH]1 [fenbendazole] | 5.6 | 4.5 | 1 | 3.8 | 1.39 | 1.81 | > 10 |  | 103 | 105 | 93.3 | 79.1 | 41 | 105 | 108 | 104 | 90.2 | 46.7 | 98.1 | 86.1 | 97.7 | 83.6 | 86.4 | 94.2 | 95.8 | 104 | 81.3 | 66.2 | 4.1 |  | 103 | 97.8 | 101 | 83.5 | 61.7 |
| CCCCCCCC/C=C/CCCCCCCC(=O)OC[C@H]1O[C@@H](n2ccc(N)nc2=O)C(F)(F)[C@@H]1O [gemcitabine-elaidate] | 25.2 | 13.4 | 12.3 | 7.6 | 0.0077 |  | 0.179 |  | 104 | 57.6 | 36.5 | 35.8 | 38.5 | 105 | 104 | 55.6 | 61.5 | 58.3 | 106 | 90.1 | 69.1 | 57.8 | 35.2 | 95.3 | 96.1 | 79.7 | 68.5 | 67.6 | 8.2 |  | 105 | 110 | 70.2 | 77 | 70.7 |
| CC(C(=O)O)c1ccc(N2Cc3ccccc3C2=O)cc1 (stereo unspecified) [indoprofen] |  | 0 | 0 | 0 |  | > 10 | > 10 | > 10 |  |  |  |  |  | 95.9 | 99.6 | 97.8 | 99.4 | 105 | 84.3 | 104 | 97.1 | 92.9 | 94.1 | 91.9 | 97.8 | 99.5 | 96.5 | 93.8 | 0 | > 10 | 95.8 | 97.6 | 103 | 100 | 102 |
| CCCCC1=NC2(CCCC2)C(=O)N1Cc1ccc(-c2ccccc2-c2nnn[nH]2)cc1 [irbesartan] | 0 | 0 | 0 | 0 | > 10 | > 10 | > 10 | > 10 | 107 | 104 | 102 | 99.9 | 106 | 100 | 101 | 99.7 | 93.6 | 94.6 | 100 | 97.1 | 100 | 101 | 108 | 109 | 97.1 | 106 | 104 | 109 |  |  |  |  |  |  |  |
| c1ccc(Cn2c(N3CCNCC3)nc3ccccc32)cc1 [lerisetron] |  | 0 | 0 | 0 |  | > 10 | > 10 | > 10 |  |  |  |  |  | 103 | 100 | 99.4 | 98.7 | 96.6 | 97.6 | 95.8 | 100 | 98 | 96.3 | 100 | 98.6 | 104 | 98.9 | 96.5 | 0 | > 10 | 99.2 | 95.4 | 105 | 98.1 | 99.9 |
| NC(=O)c1cccnc1 [nicotinamide] | 0 | 0 | 0 | 0 | > 10 | > 10 | > 10 | > 10 | 114 | 103 | 101 | 101 | 90.2 | 107 | 108 | 102 | 104 | 99.5 | 107 | 114 | 120 | 110 | 94.1 | 100 | 107 | 94.9 | 99.2 | 101 |  |  |  |  |  |  |  |
| CCCc1nc(C(C)(C)O)c(C(=O)OCc2oc(=O)oc2C)n1Cc1ccc(-c2ccccc2-c2nnn[nH]2)cc1 [olmesartan-medoxomil] |  | 0 | 0 | 0 |  | > 10 | > 10 | > 10 |  |  |  |  |  | 97.6 | 99.2 | 94.6 | 89 | 115 | 91.5 | 92.9 | 100 | 94.3 | 104 | 92.8 | 96 | 97.5 | 91.4 | 99.3 | 0 | > 10 | 95.3 | 93.7 | 99.6 | 96.3 | 99.2 |
| Cc1cc(CCCOc2c(C)cc(-c3noc(C(F)(F)F)n3)cc2C)on1 [pleconaril] | 0 | 0 | 0 | 0 | > 10 | > 10 | > 10 | > 10 | 98.6 | 94.2 | 102 | 103 | 112 | 94.2 | 96.8 | 91.6 | 92.5 | 98 | 97.8 | 93.7 | 96 | 90.3 | 93.9 | 96.6 | 102 | 103 | 102 | 105 |  |  |  |  |  |  |  |
| CC(=O)Nc1ccc(OCC(O)CNC(C)C)cc1 (stereo unspecified) [practolol] | 0 | 0 | 0 | 0.4 | > 10 | > 10 | > 10 | > 10 | 94.1 | 105 | 97.3 | 109 | 87.3 | 110 | 102 | 106 | 106 | 93.7 | 108 | 114 | 111 | 100 | 99.7 | 107 | 93.5 | 81.2 | 91.7 | 92 |  |  |  |  |  |  |  |
| CCCN(CCC)C(=O)C(CCC(=O)O)NC(=O)c1ccccc1 (stereo unspecified) [proglumide] | 0 | 0 | 0 | 0 | > 10 | > 10 | > 10 | > 10 | 98 | 104 | 107 | 109 | 106 | 104 | 100 | 98.8 | 97.8 | 107 | 100 | 113 | 104 | 89.9 | 96.2 | 102 | 105 | 95.7 | 104 | 102 |  |  |  |  |  |  |  |
| CC(CCc1ccc(O)cc1)NCC(O)c1ccc(O)cc1 (stereo unspecified) [ractopamine] |  | 0 | 0 | 0 |  | > 10 | > 10 | > 10 |  |  |  |  |  | 115 | 102 | 101 | 99.3 | 104 | 92.8 | 87.2 | 101 | 94.4 | 115 | 91.9 | 84.6 | 104 | 110 | 114 | 0 | > 10 | 100 | 98.1 | 99.1 | 99.2 | 101 |
| C[C@]12CC[C@H](O)C[C@H]1CC[C@@H]1[C@@H]2CC[C@]2(C)[C@@](O)(c3ccoc3)CC[C@]12O [rostafuroxine] |  | 0 | 0 | 0 |  | > 10 | > 10 | > 10 |  |  |  |  |  | 103 | 102 | 99.2 | 96.1 | 99.7 | 96.4 | 88.4 | 103 | 94.7 | 99.6 | 103 | 98 | 99.7 | 97.8 | 109 | 0 | > 10 | 102 | 98.6 | 101 | 101 | 101 |
| COc1ccc2[nH]c([S+]([O-])Cc3ncc(C)c(OC)c3C)nc2n1 (stereo unspecified) [tenatoprazole] | 0 |  | 0 |  | > 10 |  | > 10 |  | 101 | 113 | 104 | 106 | 97.7 |  |  |  |  |  | 109 | 114 | 103 | 96.6 | 105 |  |  |  |  |  |  |  |  |  |  |  |  |
| c1ccc2c(c1)CCCC2C1=NCCN1 (stereo unspecified) [tetrahydrozoline] | 0 | 0.7 | 0 | 0 | > 10 |  | > 10 | > 10 | 93 | 104 | 91.2 | 100 | 104 | 68.7 | 103 | 61.2 | 108 | 68.4 | 109 | 97.9 | 112 | 110 | 99.5 | 105 | 101 | 99 | 92.5 | 106 |  |  |  |  |  |  |  |
| OCCN1CCN(CC/C=C2/c3ccccc3Sc3ccc(Cl)cc32)CC1 [zuclopenthixol] | 1.8 | 0.8 | 4.1 | 0.8 |  | > 10 | 1.95 | > 10 | 93.4 | 101 | 89.9 | 98.6 | 66 | 95.2 | 95 | 93 | 93.7 | 79.2 | 95.1 | 93.9 | 98.9 | 91.9 | 47.9 | 105 | 80.8 | 92.8 | 94.8 | 82 | 1.1 | > 10 | 99.6 | 96 | 99.6 | 97.1 | 79.2 |
